Experimental findings from US8378104B2 (OSI Pharmaceuticals, LLC, priority 2010, dated 2013) are described below.

Experiment [1] concerns the target T1, TAK1-TAB1 fusion protein (Homo sapiens, UniProt O43318).
T1 construct: purchased Carna
T1 sequence (O43318 with tags, fused parts or gaps limits assumed): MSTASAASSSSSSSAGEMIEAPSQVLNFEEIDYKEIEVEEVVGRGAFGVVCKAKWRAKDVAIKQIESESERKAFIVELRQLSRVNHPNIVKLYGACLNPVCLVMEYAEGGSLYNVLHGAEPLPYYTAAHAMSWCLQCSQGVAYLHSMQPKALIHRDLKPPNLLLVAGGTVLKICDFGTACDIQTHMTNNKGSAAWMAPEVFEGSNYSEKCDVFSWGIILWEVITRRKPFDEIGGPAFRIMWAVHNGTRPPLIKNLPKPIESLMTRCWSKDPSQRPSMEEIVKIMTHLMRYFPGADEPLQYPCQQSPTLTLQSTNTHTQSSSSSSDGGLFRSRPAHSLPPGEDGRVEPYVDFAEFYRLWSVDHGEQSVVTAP
Kind of experiment: TAK1 biochemical assay (AlphaScreen, GST-MAP2K7 substrate). Particulars: TAK1-TAB1 fusion protein, GST-MAP2K7 substrate; read-out: mean TAK1 IC50 (Col. A). (In general: Alpha assays give light when donor and acceptor beads are brought close together.)

Experiment [2] relates to pJNK in HCT-116 cells. Kind of experiment: Phospho-JNK (Thr183/Tyr185) Meso Scale ELISA assay, TNFα-stimulated HCT-116 cells. The format is cell-based. Particulars: Homo sapiens, read-out: mean HCT-116 pJNK ELISA IC50 (Col. B). The method in brief: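 Meso Scale ELISA read of phospho-JNK (Thr183/Tyr185) in lysed HCT-116 cells. Cells were serum-reduced to 1% FCS for 2 hours, exposed to test drug for 4 hrs at 37° C, then given 10 ng/mL TNFα (final) for 10 minutes before lysis.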
(An ELISA detects its analyte on a solid surface through an enzyme-linked reagent.)

Structures can show the parent of a compound that is named as a salt.

Turning to `CC(=O)N1CCC(n2cc(-c3cnc(N)c4oc(-c5cccc6ncsc56)cc34)cn2)CC1` [Example 225, 1-(4-{4-[7-amino-2-(1,3-benzothiazol-7-yl)furo[2,3-c]pyridin-4-yl]-1H-pyrazol-1-yl}piperidin-1-yl)ethanone diformate salt], the half-inhibitory concentration (IC50) in experiment [1] and in experiment [2] was below 100 nM each time.

For the compound `CC(=O)N1CCC(n2cc(-c3cnc(N)c4oc(-c5cc(F)cc6cnsc56)cc34)cn2)CC1` [Example 237, 1-(4-{4-[7-amino-2-(5-fluoro-1,2-benzothiazol-7-yl)furo[2,3-c]pyridin-4-yl]-1H-pyrazol-1-yl}piperidin-1-yl)ethanone diformate salt], the IC50 in experiment [1] and in experiment [2] was below 100 nM in each case.

On to `Nc1ncc(-c2cnn(C3CCN(C(=O)C4CC4)CC3)c2)c2cc(-c3csc4cnccc34)oc12` [Example 228, (4-{4-[7-amino-2-(thieno[2,3-c]pyridin-3-yl)furo[2,3-c]pyridin-4-yl]-1H-pyrazol-1-yl}piperidin-1-yl)(cyclopropyl)methanone diformate salt], for which the IC50 in experiment [1] and in experiment [2] was below 100 nM each time.

In the case of `Nc1ncc(-c2cnn([C@H]3CC[C@H](O)CC3)c2)c2c(Cl)c(-c3csc4cnccc34)oc12` [Example 287, trans-4-{4-[7-amino-3-chloro-2-(thieno[2,3-c]pyridin-3-yl)furo[2,3-c]pyridin-4-yl]-1H-pyrazol-1-yl}cyclohexanol], the IC50 in experiment [1] was 100 to 1000 nM; in experiment [2], below 100 nM.

`COCCCn1cc(-c2cnc(N)c3oc(-c4csc5cnccc45)cc23)cn1` [Example 342, 4-[1-(3-methoxy-propyl)-1H-pyrazol-4-yl]-2-thieno[2,3-c]pyridin-3-yl-furo[2,3-c]pyridin-7-ylamine]: the IC50 in experiment [1] and in experiment [2] was 100 to 1000 nM throughout.

In the case of `CNc1nc2cccc(-c3cc4c(-c5cnn(C6CCN(C(C)=O)CC6)c5)cnc(N)c4o3)c2s1` [Example 350, 1-[4-(4-{7-amino-2-[2-(methylamino)-1,3-benzothiazol-7-yl]furo[2,3-d]pyridin-4-yl}-1H-pyrazol-1-yl)piperidin-1-yl]ethanone trifluoroacetate], the IC50 in experiment [1] and in experiment [2] was below 100 nM throughout.

As to `CN1[C@@H]2CC[C@H]1C[C@H](n1cc(-c3cnc(N)c4oc(-c5cccc6cnsc56)cc34)cn1)C2` [Example 330, 2-(1,2-benziso-thiazol-7-yl)-4-{1-[(3-exo)-8-methyl-8-azabicyclo[3.2.1]oct-3-yl]-1H-pyrazol-4-yl}furo[2,3-c]pyridin-7-amine], the IC50 in experiment [1] is below 100 nM; in experiment [2], 100 to 1000 nM.

With `COc1nn([C@H]2CC[C@H](O)CC2)cc1-c1cnc(N)c2oc(-c3cccc4nnsc34)cc12` [Example 347, trans-4-{4-[7-amino-2-(1,2,3-benzothiadiazol-7-yl)furo[2,3-c]pyridin-4-yl]-3-methoxy-1H-pyrazol-1-yl}cyclohexanol diformate salt], the IC50 in experiment [1] and in experiment [2] was below 100 nM each time.

Take `N#Cc1ccc2cnsc2c1-c1cc2c(-c3cnn([C@H]4CC[C@H](O)CC4)c3)cnc(N)c2o1` [Example 372, 7-{7-amino-4-[1-(trans-4-hydroxycyclohexyl)-1H-pyrazol-4-yl]furo[2,3-c]pyridin-2-yl}-1,2-benzothiazole-6-carbonitrile.diformate]: the figures for the IC50 in experiment [1] and in experiment [2] were 1000 to 10000 nM and 100 to 1000 nM, respectively.

For the compound `CNc1ncc(-c2cnn(C3CCN(C(C)=O)CC3)c2)c2cc(-c3cccc4nnsc34)oc12` [Example 278, 1-(4-{4-[2-(1,2,3-benzothiadiazol-7-yl)-7-(methylamino)furo[2,3-c]pyridin-4-yl]-1H-pyrazol-1-yl}piperidin-1-yl)ethanone], the IC50 in experiment [1] and in experiment [2] was below 100 nM throughout.

As for `Nc1ncc(-c2cnn([C@H]3CC[C@H](O)C3)c2)c2cc(-c3csc4cnccc34)oc12` [Example 307, (1S,3S)-3-[4-(7-amino-2-thieno[2,3-c]pyridin-3-yl-furo[2,3-c]pyridin-4-yl)-pyrazol-1-yl]-cyclopentanol], the IC50 was below 100 nM in experiment [1] and 100 to 1000 nM in experiment [2].

One may read the IC50 as the concentration that inhibits the measured activity by half.
